Results from patent US20140370080A1, “HISTONE DEACETYLASE (HDAC) INHIBITORS FOR TREATMENT OF POST-SURGICAL ADHESIONS” (TRUSTEES OF BOSTON UNIVERSITY, priority 2011, published 2014).

Columns and labels:
adhesion formation = test: Ischemic button model of intraabdominal adhesion formation, adhesion scoring on postoperative day 7; format: in vivo, Male Wistar rats; conditions: for % Reduction (of adhesion formation vs control) / Mean adhesion formation (percentage of ischemic buttons with attached adhesions): rats, single intra-operative intraperitoneal dose (SAHA 50 mg/kg, MS-275 10 mg/kg); for % Reduction (of adhesion formation vs control): postoperative day 7; for Mean adhesion formation (percentage of ischemic buttons with attached adhesions): scored postoperative day 7, N=6; for treatment of surgical adhesions (result in words): single intra-operative dose, FIG. 4
Experimental: (§1) The surgical procedure described in Chu et al. (Surgery, 2011, 149(6): 801-812), content of which is herein incorporated by reference in its entirety, was used to test the HDAC inhibitors discussed herein. […] Adhesions were induced on the day of operation using our previously described ischemic button model. Animals were killed on postoperative day 7 for adhesion scoring. The effect of the HDAC inhibitors on intestinal wound healing was measured using colonic anastomotic burst pressures.
Male Wistar rats (range, 200-225 g; Charles River Laboratories, Wilmington, Mass.) warehoused at constant room temperature and under 12-hour light/12-hour dark cycles and allowed access to food and water ad libitum. The Institutional Animal Care and Use Committee at the Boston University School of Medicine approved this study, and all procedures described were performed in accordance with recommendations outlined in the Guide for the Care and Use of Laboratory Animals: Eighth Edition (NRC 2011) published by the National Academies of Science.
Intraperitoneal ischemic buttons were created as described in Reed et al. (J. Surgical Res., 2002, 108:165-172), content of which is herein incorporated by reference in its entirety. In brief, after a midline laparotomy, 6 ischemic buttons (3 on each side) were created by ligating 5 mm of parietal peritoneum with 4-0 silk suture. Adhesion formation was quantified in a blinded fashion on postoperative day 7 by scoring the percentage of buttons with attached fibrinous adhesions in each rat. For example, an animal that had adhesions attached to 4 of its 6 ischemic buttons received a score of 66%.

[1] = tested on: anastomotic wound healing; test: Colonic anastomotic burst pressure (intestinal wound healing); format: in vivo, Male Wistar rats; conditions: 50 mg/kg intraperitoneally, single intra-op dose, at 7 days, FIG. 3B
Experimental: as §1
In the final experiment, the inventors tested the effects of intraperitoneal HDAC inhibitors on anastomotic wound healing. Male Wistar rats were randomized to operative controls (OP Control) or operative treatment with HDAC inhibitor as noted in the figure. […] In brief, after laparotomy and division of the distal colon, an end-to-end colonic anastomosis was created using a single running layer of 7-0 polypropylene suture. Animals were killed 7 days postoperatively and, after removing a 4-cm segment containing the anastomosis, the segment underwent measurements of burst pressure as described in Aarons et al. (Annals of Surgery, 2007, 245(2): 176-184), content of which is incorporated herein by reference in its entirety.

Row | Compound | % Reduction (of adhesion formation vs control) (adhesion formation) [%] | Mean adhesion formation (percentage of ischemic buttons with attached adhesions) (adhesion formation) [%] | treatment of surgical adhesions (result in words) (adhesion formation) | anastomotic wound healing (burst pressure) [1] | adhesion formation (adhesion formation; 25 mg/kg, three doses (pre-op, intra-op and pre-op), FIG. 2A) | adhesion formation (adhesion formation; 50 mg/kg intraperitoneally, 3 doses (24 hr pre-op, intra-op, 24 hrs post-op), at 7 days, FIG. 1B) | adhesion formation (adhesion formation; 50 mg/kg intraperitoneally, single intra-op dose, at 7 days, FIG. 2A) | adhesion formation (adhesion formation; 100 mg/kg intraperitoneally, 3 doses (24 hr pre-op, intra-op, 24 hrs post-op), at 7 days, FIG. 1A) | adhesion formation (adhesion formation; 200 mg/kg intraperitoneally, 3 doses (24 hr pre-op, intra-op, 24 hrs post-op), FIG. 1A)
1 | O=C(CCCCCCC(=O)Nc1ccccc1)NO [SAHA, suberoylanlide hydroxamic acid] | 48.39 | 44.4444 | effective |  |  |  |  |  | 
2 | Nc1ccccc1NC(=O)c1ccc(CNC(=O)OCc2cccnc2)cc1 [MS-275] | 45.16 | 47.2222 | effective |  |  |  |  |  | 
3 | CCCC(CCC)C(=O)O [valproic acid] |  |  |  | did not affect | effective | significantly reduced | significantly reduced | significantly reduced | effective
